Experimental data reported in US10351547B2, “Somatostatin modulators and uses thereof” (priority 2016, dated 2019).
Where two headings read alike, the source gives them in different places.

Molecular target: human SSTR2 (Homo sapiens (Human), UniProt P30874)
Assay: Human SSTR2 intracellular cAMP functional assay for agonists (HTRF)
Assay type: cell-based
Method in brief: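 Cells bearing human SSTR2 exposed to compound for 20 minutes at 37 °C; after lysis, cAMP measured by time-resolved fluorescence (HTRF) and converted via a standard curve. EC50 calculated from cAMP versus compound concentration.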

[1] = CHO-K1 cells stably expressing human SSTR2, NKH477-stimulated cAMP, read-out: EC50 (inhibition of cAMP activities via human SST2R)

Chain of human SSTR2 (P30874 whole entry): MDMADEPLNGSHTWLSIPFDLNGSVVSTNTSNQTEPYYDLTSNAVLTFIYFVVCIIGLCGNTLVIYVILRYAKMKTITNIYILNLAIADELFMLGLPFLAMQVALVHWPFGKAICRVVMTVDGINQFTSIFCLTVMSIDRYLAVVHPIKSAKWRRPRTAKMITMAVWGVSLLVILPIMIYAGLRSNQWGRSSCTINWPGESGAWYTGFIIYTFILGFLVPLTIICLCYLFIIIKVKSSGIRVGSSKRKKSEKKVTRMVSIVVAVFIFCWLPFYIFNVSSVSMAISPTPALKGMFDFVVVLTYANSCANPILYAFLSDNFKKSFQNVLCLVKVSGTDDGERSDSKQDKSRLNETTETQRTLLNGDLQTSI

Structure (SMILES)	EC50 [1]	EC50
Cc1cc(F)cc(-c2cnc3ccc(-c4cc(F)cc(F)c4NC(=O)NOC(C)C)cc3c2N2CCC(N)CC2)c1 [2-216, 1-{2-[4-(4-aminopiperidin-1-yl)-3-(3-fluoro-5-methylphenyl)quinolin-6-yl]-4,6-difluorophenyl}-3-(propan-2-yloxy)urea]	< 0.01 µM	–
COCCOc1c(C#N)cc(F)cc1-c1ccc2ncc(-c3cc(C)cc(F)c3)c(N3CCC(N)CC3)c2c1 [2-204, 3-[4-(4-aminopiperidin-1-yl)-3-(3-fluoro-5-methylphenyl)quinolin-6-yl]-5-fluoro-2-(2-methoxyethoxy)benzonitrile]	< 0.01 µM	–
Cc1cc(F)cc(-c2cnc3ccc(-c4cncc(F)c4C=NO)cc3c2N2CCC(N)CC2)c1 [2-168, 1-(6-{5-fluoro-4-[(hydroxyimino)methyl]pyridin-3-yl}-3-(3-fluoro-5-methylphenyl)quinolin-4-yl)piperidin-4-amine]	< 0.01 µM	–
COC(=O)Nc1c(F)cccc1-c1ccc2ncc(-c3cc(F)cc(OC)c3)c(N3CCC(N)CC3)c2c1 [2-173, methyl N-{2-[4-(4-aminopiperidin-1-yl)-3-(3-fluoro-5-methoxyphenyl)quinolin-6-yl]-6-fluorophenyl}carbamate]	< 0.01 µM	–
NC1CCN(c2c(-c3cc(F)cc(F)c3)cnc3ccc(-c4ccnc(C=NO)c4)cc23)CC1 [2-203, 1-[3-(3,5-difluorophenyl)-6-{2-[(hydroxyimino)methyl]pyridin-4-yl}quinolin-4-yl]piperidin-4-amine]	< 0.01 µM	–
COCOc1c(C#N)cccc1-c1ccc2ncc(-c3cc(F)cc(F)c3)c(N3CC[C@@H](N)[C@H](OC)C3)c2c1 [2-84]	< 0.01 µM	–
N#Cc1cccc(-c2ccc3nnc(-c4cc(F)cc(F)c4)c(N4CCC(N)CC4)c3c2)c1O [1-20, 3-[4-(4-aminopiperidin-1-yl)-3-(3,5-difluorophenyl)cinnolin-6-yl]-2-hydroxybenzonitrile]	–	0.01 to 0.1 µM
Cc1cc(F)cc(-c2cnc3ccc(-c4cc(F)cc(C#N)c4O)cc3c2N2CC(CN3CC[C@H](F)C3)C2)c1 [2-49, 5-fluoro-3-[3-(3-fluoro-5-methylphenyl)-4-(3-{[(3 S)-3-fluoropyrrolidin-1-yl]methyl}azetidin-1-yl)quinolin-6-yl]-2-hydroxybenzonitrile]	< 0.01 µM	–
Nc1c(-c2ccc3ncc(-c4cc(F)cc(F)c4)c(N4CC[C@H]5NCCO[C@@H]5C4)c3c2)cnn1C1COC1 (relative stereo) [2-268, 4-{4-[trans-octahydro-1H-pyrido[3,4-b]morpholin-6-yl]-3-(3,5-difluorophenyl)quinolin-6-yl}-1-(oxetan-3-yl)-1H-pyrazol-5-amine]	0.01 to 0.1 µM	–
COc1cc(F)cc(-c2cnc3ccc(-c4cccc(F)c4NC(=O)N4CCC4)cc3c2N2CCC(N)CC2)c1 [2-175, N-{2-[4-(4-aminopiperidin-1-yl)-3-(3-fluoro-5-methoxyphenyl)quinolin-6-yl]-6-fluorophenyl}azetidine-1-carboxamide]	–	0.01 to 0.1 µM
CO/N=C/c1cccc(-c2ccc3ncc(-c4cc(F)cc(F)c4)c(N4CC[C@H]5NCCO[C@@H]5C4)c3c2)c1O (racemic) [2-243, 2-{4-[trans-octahydro-1H-pyrido[3,4-b]morpholin-6-yl]-3-(3,5-difluorophenyl)quinolin-6-yl}-6-(methoxyiminomethyl)phenol]	< 0.01 µM	–
CO[C@@H]1CN(c2c(-c3cc(F)cc(F)c3)cnc3ccc(-c4cccc(C#N)c4O)cc23)CC[C@@H]1N [2-66, 3-{4-[(3R,4S)-4-amino-3-methoxypiperidin-1-yl]-3-(3,5-difluorophenyl)quinolin-6-yl}-2-hydroxybenzonitrile]	–	0.01 to 0.1 µM
NC1CCN(c2c(-c3cc(F)cc(F)c3)cnc3ccc(-c4cncc(Cl)c4C=NO)cc23)CC1 [2-192, 1-(6-{5-chloro-4-[(hydroxyimino)methyl]pyridin-3-yl}-3-(3,5-difluorophenyl)quinolin-4-yl)piperidin-4-amine]	< 0.01 µM	–
COCCNc1c(C#N)cncc1-c1ccc2ncc(-c3cc(F)cc(F)c3)c(N3CC[C@H]4NCCO[C@@H]4C3)c2c1 (relative stereo) [2-252, 5-{4-[trans-octahydro-1H-pyrido[3,4-b]morpholin-6-yl]-3-(3,5-difluorophenyl)quinolin-6-yl}-4-[(2-methoxyethyl)amino]pyridine-3-carbonitrile]	< 0.01 µM	–
CCNCC1CN(c2c(-c3cc(C)cc(F)c3)cnc3ccc(-c4cc(F)cc(C#N)c4O)cc23)C1 [2-18, 3-(4-{3-[(ethylamino)methyl]azetidin-1-yl}-3-(3-fluoro-5-methylphenyl)quinolin-6-yl)-5-fluoro-2-hydroxybenzonitrile]	–	< 0.01 µM
Cc1cc(F)cc(-c2cnc3ccc(-c4cc(F)cc(C#N)c4O)cc3c2N2CC(CNCC(C)O)C2)c1 (stereo not drawn) [2-51, 5-fluoro-3-[3-(3-fluoro-5-methylphenyl)-4-(3-{[(2-hydroxypropyl)amino]methyl}azetidin-1-yl)quinolin-6-yl]-2-hydroxybenzonitrile]	–	0.01 to 0.1 µM
Cn1cc(-c2ccc3ncc(-c4cc(F)cc(F)c4)c(N4CC[C@H]5NCCO[C@@H]5C4)c3c2)c(C(N)=O)n1 (relative stereo) [2-257, 4-{4-[trans-octahydro-1H-pyrido[3,4-b]morpholin-6-yl]-3-(3,5-difluorophenyl)quinolin-6-yl}-1-methyl-1H-pyrazole-3-carboxamide]	0.01 to 0.1 µM	–

Structure (SMILES)	EC50 [1]	EC50
Nc1c(Cl)ccnc1-c1ccc2ncc(-c3cc(F)cc(F)c3)c(N3CC[C@H]4NCCO[C@@H]4C3)c2c1 (relative stereo) [2-275, 2-{4-[trans-octahydro-1H-pyrido[3,4-b]morpholin-6-yl]-3-(3,5-difluorophenyl)quinolin-6-yl}-4-chloropyridin-3-amine]	< 0.01 µM	–
Cc1cc(F)cc(-c2cnc3ccc(-c4cc(F)cc(C#N)c4O)cc3c2N2CC(CN3CCC(F)(F)C3)C2)c1 [2-47, 3-(4-{3-[(3,3-difluoropyrrolidin-1-yl)methyl]azetidin-1-yl}-3-(3-fluoro-5-methylphenyl)quinolin-6-yl)-5-fluoro-2-hydroxybenzonitrile]	–	0.1 to 1 µM
NC1CCN(c2c(-c3cc(F)cc(F)c3)cnc3ccc(-c4c(O)c(Br)cc(F)c4F)cc23)CC1 [2-241, 2-[4-(4-aminopiperidin-1-yl)-3-(3,5-difluorophenyl)quinolin-6-yl]-6-bromo-3,4-difluorophenol]	< 0.01 µM	–
Cn1ncc(-c2ccc3ncc(-c4cc(F)cc(F)c4)c(N4CCC(N)CC4)c3c2)c1C=NO [2-188, 1-[3-(3,5-difluorophenyl)-6-{5-[(hydroxyimino)methyl]-1-methyl-1H-pyrazol-4-yl}quinolin-4-yl]piperidin-4-amine]	< 0.01 µM	–
NC(=O)c1cccc(-c2ccc3ncc(-c4cc(F)cc(F)c4)c(N4CC[C@H]5NCCO[C@@H]5C4)c3c2)n1 [2-85, trans-6-[3-(3,5-difluorophenyl)-4-{octahydro-1H-pyrido[3,4-b]morpholin-6-yl}quinolin-6-yl]pyridine-2-carboxamide]	< 0.01 µM	–
Cc1cc(F)cc(-c2cnc3ccc(-c4cccc(C(N)=O)n4)cc3c2N2CCC(N)CC2)c1 [2-7, 6-[4-(4-aminopiperidin-1-yl)-3-(3-fluoro-5-methylphenyl)quinolin-6-yl]pyridine-2-carboxamide]	< 0.01 µM	–
Cc1cc(F)cc(-c2nnc3cc(Cl)c(-c4ccc5[nH]c(=O)[nH]c5c4)cc3c2N2CCC(N)CC2)c1 [1-8, 5-[4-(4-aminopiperidin-1-yl)-7-chloro-3-(3-fluoro-5-methylphenyl)cinnolin-6-yl]-2,3-dihydro-1H-1,3-benzodiazol-2-one]	< 0.01 µM	–
N#Cc1cccc(-c2ccc3ncc(-c4cc(F)cc(F)c4)c(N4CC[C@@H](N)[C@H](F)C4)c3c2)c1O [2-59, 3-{4-[(3R,4R)-4-amino-3-fluoropiperidin-1-yl]-3-(3,5-difluorophenyl)quinolin-6-yl}-2-hydroxybenzonitrile]	< 0.01 µM	–
CON=Cc1c(F)cccc1-c1ccc2ncc(-c3cc(F)cc(F)c3)c(N3CCC(N)CC3)c2c1 [2-129, 1-[3-(3,5-difluorophenyl)-6-{3-fluoro-2-[(methoxyimino)methyl]phenyl}quinolin-4-yl]piperidin-4-amine]	–	0.01 to 0.1 µM
CO[C@H]1CN(c2c(-c3cc(F)cc(F)c3)cnc3ccc(-c4cccc(C#N)c4O)cc23)CC[C@H]1N [2-61, 3-{4-[(3S,4R)-4-amino-3-methoxypiperidin-1-yl]-3-(3,5-difluorophenyl)quinolin-6-yl}-2-hydroxybenzonitrile]	–	0.01 to 0.1 µM
CONC(=O)Nc1ccc(C#N)cc1-c1ccc2ncc(-c3cc(F)cc(F)c3)c(N3CCC(N)CC3)c2c1 [2-189, 1-{2-[4-(4-aminopiperidin-1-yl)-3-(3,5-difluorophenyl)quinolin-6-yl]-4-cyanophenyl}-3-methoxyurea]	< 0.01 µM	–
Cc1cc(F)cc(-c2cnc3ccc(-c4cncc(F)c4N)cc3c2N2CCC(N)CC2)c1 [2-169, 3-[4-(4-aminopiperidin-1-yl)-3-(3-fluoro-5-methylphenyl)quinolin-6-yl]-5-fluoropyridin-4-amine]	< 0.01 µM	–
N#Cc1cccc(-c2ccc3ncc(-c4cc(F)cc(F)c4)c(N4CC[C@@H](N)[C@@H](O)C4)c3c2)c1O (relative stereo) [2-60, cis-3-{4-[4-amino-3-hydroxypiperidin-1-yl]-3-(3,5-difluorophenyl)quinolin-6-yl}-2-hydroxybenzonitrile]	–	< 0.01 µM
Cc1cc(Cl)cc(-c2nnc3cc(Cl)c(-c4cc(F)cc(C#N)c4O)cc3c2N2CCC(N)CC2)c1 [1-12, 3-[4-(4-aminopiperidin-1-yl)-7-chloro-3-(3-chloro-5-methylphenyl)cinnolin-6-yl]-5-fluoro-2-hydroxybenzonitrile]	< 0.01 µM	–
Cc1cc(Cl)cc(-c2cnc3ccc(-c4cccc(C#N)c4O)cc3c2N2CC(CN)C2)c1 [2-13, 3-{4-[3-(aminomethyl)azetidin-1-yl]-3-(3-chloro-5-methylphenyl)quinolin-6-yl}-2-hydroxybenzonitrile]	–	0.01 to 0.1 µM
Cc1cc(F)cc(-c2cnc3ccc(-c4cc(F)c5[nH]c(=O)[nH]c5c4)nc3c2N2CCC(N)CC2)c1 [3-5, 6-[8-(4-aminopiperidin-1-yl)-7-(3-fluoro-5-methylphenyl)-1,5-naphthyridin-2-yl]-4-fluoro-2,3-dihydro-1H-1,3-benzodiazol-2-one]	< 0.01 µM	–
